What was measured:
[1] = system: Cimex lectularius (adults); test: Device choice test in arenas: compound device vs mixture device vs untreated control (Tables 2 and 3); format: in vivo; conditions: 1.0 mg of each compound per device (Device A), 20 bugs per arena, against mixture device and UTC
Protocol: The attraction, arresting, or aggregation of bed bugs from the species Cimex lectularius to cholesterol, 2-Heptanone, and 2-Heptanone oxime was evaluated in Tables 2 and 3 by the following methodology. In this example, 20 Cimex lectularius (adults) were placed in plastic boxes (20×20 cm). The bottom of each box was covered with paper. A piece of folded filter paper served as a shelter for the Cimex lectularius bed bugs. The bed bugs were fed two days before they were put into the test-arenas. As set forth in Table 2, three types of devices were compared: Device (A): a device containing cholesterol (Box 1), a device containing 2-Heptanone (Box 2), a device containing 2-Heptanone-oxime (Box 3), and a device containing 2-Heptanone and 2-Heptanone-oxime (Box 4); Device (B): a device containing a mixture of cholesterol, 2-Heptanone, and 2-Heptanone-oxime (Box 1-4); and Device (C) a device without an attractant, arresting, or aggregating compound, serving as a control (“UTC”). The concentrations of the compounds tested are as follows: Cholesterol—1% in ethanol, 0.1 ml per detection device (1 mg a.i.); 2-Heptanone—1% in ethanol, 0.1 ml per detection device (1 mg a.i.); and 2-Heptanone oxime—1% in ethanol, 0.1 ml per detection device (1 mg a.i.). [table] The number of bed bugs in the different devices and on the bottom of the arenas were counted at day 1, day 4, and day 7 after the start of the trial. The total number of bugs per arena was 20. The relative effectiveness of cholesterol, 2-Heptanone, and 2-Heptanone-oxime in attracting, arresting, or aggregating bed bugs was evaluated in Table 3.

[2] = system: Cimex lectularius (adults); test: Device choice test in arenas: treated device vs untreated control at 0.1 mg and 0.5 mg (Tables 4 and 5); format: in vivo; conditions: 20 bugs per arena, against UTC device
Protocol: In this example, 20 Cimex lectularius (adults) were placed in plastic boxes (20×20 cm). The bottom of each box was covered with paper. A piece of folded filter paper served as a shelter for the Cimex lectularius bed bugs. The bed bugs were fed two days before they were put into the test-arenas. As set forth in Table 4, the ability of 2-Heptanone and 2-Heptanone-oxime to attract bed bugs at a concentration of 0.1 mg and 0.5 mg was evaluated. Device (A) includes 2-Heptanone, 2-Heptanone oxime, or both 2-Heptanone and 2-Heptanone oxime. Device (B) served as an untreated control. [table] […] The total number of bugs per arena was 20.

Row | Compound | Number of bed bugs in the device (Compounds) ([1]; day 1) | Number of bed bugs in the device (Compounds) ([1]; day 4) | Number of bed bugs in the device (Compounds) ([1]; day 7) | Number of bed bugs in the device (Compounds + concentrations) ([2]; 0.1 mg per device, day 1) | Number of bed bugs in the device (Compounds + concentrations) ([2]; 0.1 mg per device, day 3) | Number of bed bugs in the device (Compounds + concentrations) ([2]; 0.1 mg per device, day 6) | Number of bed bugs in the device (Compounds + concentrations) ([2]; 0.5 mg per device, day 1) | Number of bed bugs in the device (Compounds + concentrations) ([2]; 0.5 mg per device, day 3) | Number of bed bugs in the device (Compounds + concentrations) ([2]; 0.5 mg per device, day 6)
1 | CCCCCC(C)=NO [2-Heptanone-oxime, 2-Heptanone oxime] | 13 | 13 | 13 | 12 | 14 | 15 | 8 | 11 | 12
2 | CCCCCC(C)=O [2-Heptanone] | 2 | 2 | 2 | 0 | 0 | 1 | 0 | 0 | 1
3 | CC(C)CCC[C@@H](C)[C@H]1CC[C@H]2[C@@H]3CC=C4C[C@@H](O)CC[C@]4(C)[C@H]3CC[C@]12C [Cholesterol, cholesterol] | 1 | 1 | 1 | – | – | – | – | – | –

Reference: patent US20110289824A1, “COMPOUNDS, METHODS, AND DEVICES FOR DETECTING AND/OR TREATING INSECT INFESTATION” (priority 2010, published 2011)
